Data published in patent publication US5637619A, “Antitumor 2-aminocarbonyl-1, 2-bis(methylsulfonyl)-1-(substituted)hydrazines” (Yale University, priority 1995, dated 1997).
Where “and” joins values, the source holds several entries; their conditions need not be identical. Identical values can stand only once.

Assays:
[1] = tested on: M5076 reticulum cell sarcoma; assay: M5076 reticulum cell sarcoma, sc implanted; format: in vivo, C57BL/6 mice; details: 48 mg/kg/injection, q2d × 5, iv, 100% DMSO
Method: (§1) The M5076 reticulum cell sarcoma was passaged biweekly by sc transfer of tumor fragments into C57BL/6 mice, and the M109 lung carcinoma was similarly passaged in BALB/c mice. The LX-1 human lung carcinoma was passaged sc every two to three weeks in BALB/c-background athymic (nu/nu) mice. For use in these systems, compound III was dissolved in: (a) 100% DMSO and administered by iv injection in a fixed volume of 10 microliters; or (b) DMSO diluted with saline to a final concentration of 10% DMSO and administered iv in a volume of 0.01 milliliter/g of body weight. […] Mitomycin C and cyclophosphamide were dissolved and administered in saline. BCNU and MeCCNU were dissolved in ethanol and diluted 1:9 (v/v) with water prior to administration.
(§2) Five mice per group were employed in experiments with the B16F10 melanoma, and 8 mice per group with the M5076 sarcoma, the M109 carcinoma and the LX-1 carcinoma. A minimum of two dose levels per compound were included in each evaluation and drug therapy was initiated 24 h after tumor implantation for the M5076 sarcoma and M109 carcinoma. In the LX-1 experiment, tumor bearing mice were selected and sorted into treatment and control groups on day 6 post-tumor implant such that all tumor weights ranged from 50-100 mg and median tumor weights per group were reasonably similar. Therapeutic results are presented in terms of: (a) increases in lifespan reflected by the relative median survival time (MST) of treated versus control groups (i.e., %T/C values), and by long-term survivors, and (b) primary tumor growth inhibition (i.e., T-C values) determined by calculating the relative median times for treated (T) and control untreated (C) mice to grow tumors of a 0.5 g size for the LX-1 carcinoma or a 1 g size for the murine neoplasms. Tumor weights were interchangeable with tumor size on the basis of 1 mm^3 =1 mg. […] The activity criterion for tumor inhibition was a delay in tumor growth consistent with one log10 cell kill (LCK). The absolute T-C value needed to attain this level of efficacy varied from experiment to experiment and depended upon the tumor volume doubling time of the control mice in each study. Treated mice dying prior to day 10 in the ip M109 experiment, or dying before their tumors achieved 0.5 g for the LX-1 carcinoma or 1 g in size for all other sc tumor models, were considered to have died from drug toxicity. Groups of mice with more than one death due to drug toxicity were not used in the evaluation of antitumor efficacy. Statistical evaluations of data were performed using Gehan's generalized Wilcoxan test (Gehan, Biometrika, 1965, 52, 203-233).
Compound III was also evaluated against the M5076 reticulum cell sarcoma implanted sc. When administered iv at a level of 48 mg/kg per injection in 100% DMSO every other day for five days, compound III cured 6 out of 8 mice and consequently, no median time (T-C value) to reach 1 gram size tumors was expressed for this group. Tumor growth in mice receiving only 100% DMSO was indistinguishable from that of untreated control animals. 1-(2-Chloroethyl)-3-(4-methylcyclohexyl)-1-nitrosourea (MeCCNU) and BCNU were included in this experiment for comparison. The former achieved a maximum %T/C of 128 and a delay in tumor growth of 33.5 days at 16 mg/kg per injection administered iv every fourth day for three total injections, while BCNU, administered iv on the same treatment schedule, produced a %T/C in excess of 157, with 2 out of 8 cures, and a T-C of >62 days (data not shown).

B16F10 melanoma = assay: B16F10 melanoma, tumor growth delay in mice; format: in vivo, C57BL/6 mice; details: 100% DMSO
Method: B16F10 melanoma cells were grown in vitro as monolayers in minimum essential medium with Hank's salts supplemented with 10% fetal bovine serum and 1% 200 mM L-glutamine solution. Solid tumors were produced in C57BL/6 female mice 12- to 14-weeks of age by the intradermal injection in the right flank of each mouse of 0.1 mL of a cell suspension containing 10^6 B16F10 cells/mL from freshly trypsinized cultures. After 10-12 days, animals bearing approximately 100 mm^3 tumors were treated ip with compound III or IV dissolved in 100% DMSO for 6 consecutive days, and tumor volumes were measured on alternate days until reaching 1000 mm^3.
as §2
In addition, both compounds III and IV were evaluated in 100% DMSO against the B16F10 melanoma implanted intradermally (id) in mice (Table III). In an initial experiment, compound IV produced a T-C of 15.5 days at a daily dosage level of 20 mg/kg administered once daily for six consecutive days beginning on day 10 post-implant. In the same experiment, using the same treatment schedule, a growth delay of 11 days was obtained with compound III. […] Thus, the aminocarbonyl component in this class of agents influences the magnitude of the antitumor effects obtained against the B16F10 melanoma.

M109 lung carcinoma = assay: M109 lung carcinoma, sc implanted; format: in vivo, BALB/c mice
Method: as §1, §2
Compound III was also evaluated against the M109 lung carcinoma implanted subcutaneously (sc). In the initial test using this model, a dose of 50 mg/kg per injection of this compound was administered intravenously (iv) in 10% DMSO in saline every fourth day for a total of three injections. […] Mitomycin C, used as a reference drug, produced a maximum %T/C of 103 and a delay in tumor growth of 10 days (data not shown). A subsequent evaluation of compound III was performed using four different doses on a slightly different schedule, i.e., 24, 32, 48 and 64 mg/kg administered every third day for four total injections, and two vehicles, 10% DMSO in saline and 100% DMSO. […] Cyclophosphamide and mitomycin C were included as reference drugs in the last experiment. The former compound produced a maximum %T/C of 143 and a delay in tumor growth of 8.8 days, while mitomycin C produced a maximum %T/C of 134 and a T-C value of 9.3 days (data not shown). As reported earlier, compound X achieved a maximum %T/C of 136 and a maximum T-C value of 14.5 days against this tumor (Shyam, et al., J. Med. Chem., 1993, 36, 3496).

[2] = experiment a, 50 mg/kg/injection, q4d × 3, iv, 10% DMSO in saline
[3] = experiment b, 64 mg/kg/injection, q3d × 4, iv, 100% DMSO

SMILES: CS(=O)(=O)N(CCCl)N(C(=O)NCCCl)S(C)(=O)=O [Compound III, 1,2-bis(methylsulfonyl)-1-(2-chloroethyl)-2-(2-chloroethyl)aminocarbonylhydrazine]
- %T/C (median survival time) [1]: > 157%
- Cures/Total [1]: 6/8 and 6 out of 8
- T-C, growth delay (B16F10 melanoma; experiment a, 20 mg/kg/injection, qd × 6 from day 10, ip, 20 mg/kg): 11 days and 11.0 days
- T-C (B16F10 melanoma; experiment b, 20 mg/kg/injection, qd × 6 from day 12, ip): 5.5 days
- T-C, growth delay (B16F10 melanoma; experiment b, 30 mg/kg/injection, qd × 6 from day 12, ip): 13.5 days
- lethality (in words) (M109 lung carcinoma; 48 mg/kg per injection, q3d × 4, iv, 10% DMSO in saline): excessively lethal
- antitumor effect versus 10% DMSO formulation, statistics (in words) (M109 lung carcinoma; 64 mg/kg in 100% DMSO vs best T-C in 10% DMSO in saline, p<0.01): statistically superior (p<0.01)
- treatment-associated lethalities (in words) (M109 lung carcinoma; 64 mg/kg per injection, q3d × 4, iv, 100% DMSO): without causing any treatment-associated lethalities
- %T/C (median survival time) (M109 lung carcinoma; [2]): 115%
- T-C, delay in tumor growth (M109 lung carcinoma; [2]): 8.3 days
- activity assessment of %T/C (in words) (M109 lung carcinoma; experiment a, 50 mg/kg/injection, q4d × 3, iv, criterion T/C ≥125%): not considered to be an active result
- %T/C (median survival time), maximum (M109 lung carcinoma; experiment b, 24 mg/kg/injection, q3d × 4, iv, 10% DMSO in saline): 143%
- T-C, maximum delay in tumor growth (M109 lung carcinoma; experiment b, 32 mg/kg/injection, q3d × 4, iv, 10% DMSO in saline): 9.3 days
- %T/C (median survival time), maximum (M109 lung carcinoma; [3]): 145%
- T-C, delay in tumor growth (M109 lung carcinoma; [3]): 17.8 days
